Test [1] concerns Panc 03.27 MTAP Knock-out Clone 31. The test can be described thus: 10-day proliferation screen with Compound A pre-treatment (Example 3). The class given is cell-based. To be noted: Homo sapiens, read-out: Growth IC50. As for the experimental part: (§1) A 10-day proliferation screen was performed in 15 pancreatic, non-small cell lung, and bladder cancer cell lines: 10 MTAP null and 5 MTAP wild-type. Optimal cell seeding for all cell lines was determined by assessing the growth over a range of seeding densities in a 384-well format to identify conditions that permitted proliferation for 10 days. […] Cells were incubated at 37° C. with 5% CO2 for 4 days to allow for target engagement of the pre-treatment compound. Maintaining the pre-treatment condition, cells were also treated with an 11-point, three-fold titration series of compounds from a chemically diverse library of 424 compounds. The combination compound concentrations ranged from 0.2 nM to 14,679 nM. A plate of cells was harvested at the time of combination compound addition to quantify the number of cells at the start of the combination (T0). For cell quantification, the harvested cells were lysed with CellTiter-Glo (CTG) (Promega) reagent according to the manufacturer's protocol and the chemiluminescent signal was detected on a Synergy Neo plate reader (ThermoFisher, serial #140715A). CTG estimates cell number through detection of cellular ATP levels. Cells were incubated with the drug combinations at 37° C. with 5% CO2 for an additional 6 days for a total of a 10-day assay including the pre-treatment. Cells were then lysed with CTG and the chemiluminescent signal was measured. CTG values obtained after the 10-day treatment were background subtracted, expressed as a percent of the T0 value, and plotted against compound concentration. Data were fit with a four-parameter equation to generate concentration response curves. Growth IC50 values and maximal growth inhibition were compared between the DMSO and the Compound A pre-treated cells for each combination titration. Combination hit calling was based on the observation of >2-fold shift in growth IC50 and/or greater than 20% […] in growth inhibition.

A further test has as its system Panc 03.27 Parent. The test is described as above. The class given is cell-based. To be noted: Homo sapiens, read-out: Growth IC50. The protocol:
as §1

The test system of the next test is RT112/84. The description is as above. The class given is cell-based. To be noted: Homo sapiens, read-out: Growth IC50. As for the experimental part:
(§2) A 10-day proliferation screen was performed in 15 pancreatic, non-small cell lung, and bladder cancer cell lines: 10 MTAP null and 5 MTAP wild-type. Optimal cell seeding for all cell lines was determined by assessing the growth over a range of seeding densities in a 384-well format to identify conditions that permitted proliferation for 10 days. Cells were then plated at the optimal seeding density in the presence of 20-150 nM of Compound A or DMSO vehicle control. Cells were incubated at 37° C. with 5% CO2 for 4 days to allow for target engagement of the pre-treatment compound. Maintaining the pre-treatment condition, cells were also treated with an 11-point, three-fold titration series of compounds from a chemically diverse library of 424 compounds. The combination compound concentrations ranged from 0.2 nM to 14,679 nM. A plate of cells was harvested at the time of combination compound addition to quantify the number of cells at the start of the combination (T0). For cell quantification, the harvested cells were lysed with CellTiter-Glo (CTG) (Promega) reagent according to the manufacturer's protocol and the chemiluminescent signal was detected on a Synergy Neo plate reader (ThermoFisher, serial #140715A). CTG estimates cell number through detection of cellular ATP levels. Cells were incubated with the drug combinations at 37° C. with 5% CO2 for an additional 6 days for a total of a 10-day assay including the pre-treatment. Cells were then lysed with CTG and the chemiluminescent signal was measured. CTG values obtained after the 10-day treatment were background subtracted, expressed as a percent of the T0 value, and plotted against compound concentration. Data were fit with a four-parameter equation to generate concentration response curves. Growth IC50 values and maximal growth inhibition were compared between the DMSO and the Compound A pre-treated cells for each combination titration. Combination hit calling was based on the observation of >2-fold shift in growth IC50 and/or greater than 20% […] in growth inhibition.

A further test relates to NCI-H2228. Described as above. The class given is cell-based. To be noted: Homo sapiens, read-out: Growth IC50. As for the experimental part:
as §2

The subject of a further test is NCI-H2170. Described as above. The settings on record: Homo sapiens, read-out: Growth IC50. The class given is cell-based. As for the experimental part:
as §2

Test [2] has as its system RT112/84 human bladder tumor cell-derived xenograft (CDX) model. As to the kind of experiment: Anti-tumor activity in RT112/84 mouse xenograft (CDX) model (Example 7). Format: in vivo. The settings on record: Compound A 10 mg/kg oral once per day. As for the experimental part: All mouse studies were approved by the Institutional Animal Care and Use Committee (IACUC) based on guidelines from the National Institutes of Health (NIH). Mice were maintained under pathogen-free conditions, and food and water were provided ad libitum.
The anti-tumor effect of Compound A and irinotecan hydrochloride as single-agents or in combination was assessed in the RT112/84 human bladder tumor cell-derived xenograft (CDX) model. Cells were expanded in RPMI-1640 (Gibco, Catalog Number 11875093) with 10% fetal bovine serum. These cells were free of mycoplasma and authenticated by STR profiling. Five million cells in log growth phase were resuspended in Hanks Balanced Salt Solution containing 50% Matrigel and implanted subcutaneously into the flank of each recipient female Crl:NU-Foxnlnu mouse. Mice were housed in microisolator cages with corn cob bedding with additional enrichment consisting of sterile nesting material (Innovive) and Bio-huts (Bio-Serv). Water (Innovive) and diet (Teklad Global 19% Protein Extruded Diet 2919, Irradiated) were provided ad libitum. The environment was maintained on a 12-hour light cycle at approximately 68-72° F. and 40-60% relative humidity.
Tumor Volume (TV) was calculated using the following formula: TV (mm^3)=(width×width×length)/2. Tumor growth inhibition (TGI) was calculated by [(TV controlfinal−TV treatedfinal)/(TV controlfinal−TV controlinitial)×100]. TV was analyzed for statistical significance utilizing GraphPad Prism version 10.0.3. Repeated Measures 2-Way ANOVA with Tukey's Multiple Comparisons was utilized, and P-values were derived from data collected on Day 14 (date of Vehicle group termination) and were considered statistically significant if less than 0.05. Tumor regression was calculated by using the percent change in tumor volume from the final tumor volume measurement from Day 73 when compared to the initial tumor volume from Day 1. Tumor regression was defined as reduced TV on Day 73 compared to Day 1. Tumor regression rate was defined as the percentage of animals per group with tumor regression.
Mean tumor volume at dosing start was approximately 249 mm^3, with ten mice randomized to each treatment group. Mice were dosed orally, once per day, with Vehicle, Compound A at 10 mg/kg, or dosed for 3 consecutive days followed by 4 days holiday by intraperitoneal (IP) injection of Compound B at 5 mg/kg, or combination of Compound A and Compound B. The vehicle group was a combination of Vehicle A (for Compound A, 0.5% 400 cps methylcellulose with 0.5% Tween-80 in sterile water) and Vehicle B (for irinotecan hydrochloride, Saline).

Setting [3] is: PANC-03-27, Cmpd A pre-treatment 15 nM.

Where two headings read alike, the source gives them in different places.

These results are taken from patent US20260294915A1, “COMBINATION THERAPY COMPRISING A MAT2A INHIBITOR AND A TOPOISOMERASE INHIBITOR, A SPLICING INHIBITOR SULFONAMIDE, OR A KIF18 INHIBITOR” (IDEAYA BIOSCIENCES, INC., priority 2023, published 2026).

A word on the IC50: it is the concentration needed to halve the response being measured. `NS(=O)(=O)c1ccc(S(=O)(=O)Nc2cccc3c(Cl)c[nH]c23)cc1` [Indisulam, N-(3-chloro-1H-indol-7-yl)benzene-1,4-disulfonamide]: the half-maximal inhibitory concentration (IC50) in test [1] (setting [3]) amounted to 873 nM; in test [1] (PANC-03-27, DMSO pre-treatment), 2170 nM; in the test on Panc 03.27 Parent (setting [3]), 618 nM; in the test with Panc 03.27 Parent (PANC-03-27, DMSO pre-treatment), 814 nM; with RT112/84 (RT112/84, Cmpd A pre-treatment 150 nM) it was 229 nM; in the test with RT112/84 (RT112/84, DMSO pre-treatment), 913 nM. The IC50 with NCI-H2228 (NCI-H2228, Cmpd A pre-treatment 80 nM) worked out at 191 nM; in the test with NCI-H2228 (NCI-H2228, DMSO pre-treatment), 167 nM; in the test with NCI-H2170 (NCI-H2170, Cmpd A pre-treatment 80 nM) it was 5550 nM; with NCI-H2170 (NCI-H2170, DMSO pre-treatment), 7170 nM.
The term TGI denotes how far tumour growth fell short of that in controls. In the case of `Nc1nc(=O)n(-c2ccccc2Cl)c2nc(C(F)(F)F)ccc12` [Compound A], in test [2], the “Day 14 TGI” value was 53%. In addition, the “Day 14 TV (mean)” value in test [2] (initial TV 249, vehicle 1069) turned out to be 632 mm^3. Also, the TGI in test [2] (irinotecan 5 mg/kg IP 3 days on/4 days off) is given as 53%.
